Reference: patent US11096910B2, “Metabolically robust analogs of CYP-eicosanoids for the treatment of cardiac disease” (OMEICOS THERAPEUTICS GMBH, priority 2015, dated 2021)

Legend:
[1] = test system: spontaneously beating neonatal rat cardiomyocytes (NRCMs); assay: Spontaneous beating rate of neonatal rat cardiomyocytes (anti-arrhythmic cell model); type: cell-based; settings: 20 nM or 30 nM; comparison between analogs
Experimental: The compounds include analogues being part of the invention (Comp-01 to Comp-05), which were synthesized as described in example 1, and additional related compounds (Comp-06 to Comp-13). A 1000-fold stock solutions in ethanol of the test compounds was prepared before use.
In order to measure the biological activities of metabolically robust analogs of CYP-eicosanoids an established cell model was used (Kang, J. X. et al., Proc Natl Acad Sci USA, 1994. 91(21): p. 9886-90). The spontaneously beating neonatal rat cardiomyocytes (NRCMs) are a model system to investigate anti-arrhythmic effects of test-compounds. […]
Isolation and cultivation of NRCMs were performed as described previously (Wallukat, G et al., J Clin Invest. 1999; 103: 945-952; Falck, J R et al., J Med Chem. 2011 Jun. 23; 54(12):4109-18). […] After four hours of incubation cells were adopted for 10 min to 31° C. and beating was recorded using an inverted microscope (Leica DM IRB) equipped with a CCD camera and coupled to an IonOptix (software: IonWizard6, IonOptix). To determine the basal rate, 6 to 8 individual clusters were selected and the number of contractions was counted for 15 sec. After that, the compound to be tested was added to the culture and the beating rate of the same clusters was monitored 5 min later again. […]

[2] = test system: mouse neonatal primary cardiomyocyte culture; assay: Oxygen-glucose deprivation/reoxygenation injury in primary cardiomyocytes; type: cell-based; settings: for amelioration of loss of cell number: Hoechst 33342 staining; for reduction of apoptosis: caspase 3/7 activation
Experimental: In vitro ischemic injury was induced in mouse neonatal primary cardiomyocyte culture by oxygen-glucose deprivation for 18 hours and a 24 hours reoxygenation period in a humidified incubator with 5% CO2/95% air. Cardiomyocytes were incubated with the test compounds during 4 hours prior to the oxygen glucose depriviation (OGD) induction. The test compounds were also present during the OGD insult and during the 24 h-reoxygenation period. After the reoxygenation period, cell number was assessed by Hoechst 33342 staining, apoptosis was measured by determining caspase 3/7 activation, and cell membrane integrity or necrosis was measured as LDH release.
Data were expressed as mean±SD of three separate wells and individual comparisons were made with Student's t-test (SigmaPlot 9.0 program). The results were normalized to the normoxia-treated cells. Statistical significance (*) p<0.05 as compared to normoxia/DMSO-treated cells and (§) hypoxia/DMSO treated cells. Results

SMILES	negative chronotropic effect on NRCMs, in words [1]	reduction of cellular necrosis (LDH-release) ([2]; 30 nM) [%]	amelioration of loss of cell number ([2]; 30 nM)	reduction of apoptosis ([2]; 30 nM)	reduction of cellular necrosis (LDH-release) ([2]; 10 μM) [%]	amelioration of loss of cell number ([2]; 10 μM)	reduction of apoptosis ([2]; 10 μM) [%]
CNC(=O)C(=O)NCCCCc1ccccc1CCCCCCOCC(=O)O [Comp-05]	without major loss of activity	–	–	–	–	–	–
CCC1OC1C/C=C\C/C=C\C/C=C\C/C=C\CCCC(=O)O (stereo not shown) [17,18-EEQ, reference compound]	–	41	did not significantly affect cell number	not at the low concentration tested	37	did not significantly affect cell number	43
